# Columns and labels:
# physchem = details: octanol/water
# [1] = Oral bioavailability in dog; type: ADME, organism-based, Canis lupus familiaris; details: in vivo
# [2] = Oral bioavailability in rat; type: ADME, organism-based; details: in vivo
# [3] = Oral bioavailability in mouse; type: ADME, organism-based; details: in vivo
# [4] = Half life in dog; type: ADME, organism-based, Canis lupus familiaris; details: in vivo
# [5] = Half life in rat; type: ADME, organism-based; details: in vivo
# [6] = Half life in mouse; type: ADME, organism-based; details: in vivo
# [7] = Volume of distribution at steady state in dog; type: ADME, organism-based, Canis lupus familiaris; details: in vivo, read-out: Vdss
# [8] = Clearance in rat; type: ADME, organism-based; details: in vivo
# [9] = Clearance in mouse; type: ADME, organism-based; details: in vivo
# [10] = Intrinsic clearance in dog hepatocytes assessed per million of cells; type: ADME, cell-based, Canis lupus familiaris, Hepatocyte; details: read-out: CLH
# [11] = Intrinsic clearance in rat hepatocytes assessed per million of cells; type: ADME, cell-based, Hepatocyte; details: read-out: CLH
# [12] = Intrinsic clearance in mouse hepatocytes assessed per million of cells; type: ADME, cell-based, Hepatocyte; details: read-out: CLH
# in vitro = details: human, hepatocytes
logD (physchem),Structure (SMILES),other results
2.4,NC1(C(=O)N[C@@H](CCN2CCCCC2)c2ccc(Cl)cc2)CCN(c2ncnc3[nH]ccc23)CC1 (racemic),–
2.7,C[C@H](NC(=O)C1(N)CCN(c2ncnc3[nH]ccc23)CC1)c1ccc(Cl)cc1,–
2.4,CN(C)C(=O)CC(NC(=O)C1(N)CCN(c2ncnc3[nH]ccc23)CC1)c1ccc(Cl)cc1 (racemic),–
3.4,NC1(C(=O)NC(c2ccc(Cl)cc2)C2CC2)CCN(c2ncnc3[nH]ccc23)CC1 (racemic),–
2.7,CC(NC(=O)C1(N)CCN(c2ncnc3[nH]ccc23)CC1)c1ccc(Cl)cc1 (racemic),–
2.4,CC(NC(=O)C1(N)CCN(c2ncnc3[nH]ccc23)CC1)c1ccc(F)cc1 (racemic),–
1.3,CC(NC(=O)C1(N)CCN(c2ncnc3[nH]ccc23)CC1)c1ccccn1 (racemic),–
1.3,NC1(C(=O)NC(CCCN2CCCC2)c2ccc(Cl)cc2)CCN(c2ncnc3[nH]ccc23)CC1 (racemic),–
2.2,NC(=O)C(NC(=O)C1(N)CCN(c2ncnc3[nH]ccc23)CC1)c1ccc(Cl)cc1 (racemic),–
1,CC(NC(=O)C1(N)CCN(c2ncnc3[nH]ccc23)CC1)c1ccc(S(C)(=O)=O)cc1 (racemic),–
2.2,CC(NC(=O)C1(N)CCN(c2ncnc3[nH]ccc23)CC1)c1ccccc1 (racemic),–
2.2,CS(=O)(=O)NCCC(NC(=O)C1(N)CCN(c2ncnc3[nH]ccc23)CC1)c1ccc(Cl)cc1 (racemic),–
2.1,CS(=O)(=O)NCC(NC(=O)C1(N)CCN(c2ncnc3[nH]ccc23)CC1)c1ccc(Cl)cc1 (racemic),–
2.7,NC1(C(=O)NC(CCCN2CCOCC2)c2ccc(Cl)cc2)CCN(c2ncnc3[nH]ccc23)CC1 (racemic),–
4.1,NC1(C(=O)NC(c2ccccc2)c2ccc(Cl)cc2)CCN(c2ncnc3[nH]ccc23)CC1 (racemic),–
3,COCCC(NC(=O)C1(N)CCN(c2ncnc3[nH]ccc23)CC1)c1ccc(Cl)cc1 (racemic),–
–,NC1(C(=O)NCc2ccc(Cl)cc2)CCN(c2ncnc3[nH]ccc23)CC1,bioavailability [1]: 70%; bioavailability [2]: 56%; bioavailability [3]: 88%; half-life [4]: 3 h; half-life [5]: 2.3 h; half-life [6]: 0.8 h; Vd [7]: 0.6 L/kg; clearance [8]: 48 mL/min/kg; clearance [9]: 42 mL/min/kg; hepatocyte CLint [10]: 6 µL/min/1e6 cells; hepatocyte CLint [11]: 19 µL/min/1e6 cells; hepatocyte CLint [12]: 10 µL/min/1e6 cells; hepatocyte CLint (in vitro): 15 µL/min/1e6 cells
3.5,CCC(NC(=O)C1(N)CCN(c2ncnc3[nH]ccc23)CC1)c1ccc(Cl)cc1 (racemic),–
2.4,CC(=O)NCC(NC(=O)C1(N)CCN(c2ncnc3[nH]ccc23)CC1)c1ccc(Cl)cc1 (racemic),–
2.2,NC1(C(=O)NC(CS(N)(=O)=O)c2ccc(Cl)cc2)CCN(c2ncnc3[nH]ccc23)CC1 (racemic),–
2.8,NC1(C(=O)NC(CCCO)c2ccc(Cl)cc2)CCN(c2ncnc3[nH]ccc23)CC1 (racemic),–
1.4,CN(C)CCCC(NC(=O)C1(N)CCN(c2ncnc3[nH]ccc23)CC1)c1ccc(Cl)cc1 (racemic),–
2.4,NC1(C(=O)NC(CO)c2ccc(Cl)cc2)CCN(c2ncnc3[nH]ccc23)CC1 (racemic),–
3.3,C[C@@H](NC(=O)C1(N)CCN(c2ncnc3[nH]ccc23)CC1)c1ccc(Cl)cc1,–
1.8,COc1ccc(C(C)NC(=O)C2(N)CCN(c3ncnc4[nH]ccc34)CC2)cc1OC (racemic),–

# Source: ChEMBL document CHEMBL2321772 (J Med Chem, 2013)
